Tests used:
Format in all cases: cell-based
[1] = system: Staphylococcus aureus SA1199; test: MIC, standard broth micro-dilution assay, SA 1199
Description: (§1) The antibacterial efficacy of the present compounds is illustrated by Table III. The minimal inhibitory concentrations (MICs) were determined using a standard broth micro-dilution assay.

[2] = system: Staphylococcus haemolyticus 105; test: MIC, standard broth micro-dilution assay, SH 105
Description: as §1

[3] = system: Enterococcus faecalis 2041; test: MIC, standard broth micro-dilution assay, EF 2041
Description: as §1

[4] = system: Staphylococcus epidermidis 270; test: MIC, standard broth micro-dilution assay, SE 270
Description: as §1

[5] = system: Enterococcus faecium 180; test: MIC, standard broth micro-dilution assay, EF 180
Description: as §1

[6] = system: Enterococcus faecium 180-1; test: MIC, standard broth micro-dilution assay, EF 180-1
Description: as §1

[7] = system: Staphylococcus aureus SA1199A; test: MIC, standard broth micro-dilution assay, SA 1199A
Description: as §1

[8] = system: Enterococcus faecalis 276; test: MIC, standard broth micro-dilution assay, EF 276
Description: as §1

[9] = system: Enterococcus gallinarum 245; test: MIC, standard broth micro-dilution assay, EG 245
Description: as §1

[10] = system: Staphylococcus aureus S13E
Description: as §1

[11] = system: Staphylococcus aureus 447; test: MIC, standard broth micro-dilution assay, SA 447
Description: as §1

[12] = system: Haemophilus influenzae RD; test: MIC, standard broth micro-dilution assay, HFRD
Description: as §1

[13] = system: Staphylococcus aureus 491; test: MIC, standard broth micro-dilution assay, SA 491
Description: as §1

[14] = system: Staphylococcus haemolyticus 415; test: MIC, standard broth micro-dilution assay, SH 415
Description: as §1

[15] = system: Staphylococcus aureus X778; test: MIC, standard broth micro-dilution assay, SA X778
Description: as §1

[16] = system: Staphylococcus aureus X400; test: MIC, standard broth micro-dilution assay, SA X400
Description: as §1

[17] = system: Sensitive Enterococcus faecium and faecalis; test: MIC, standard broth micro-dilution assay, Sensitive; conditions: geometric mean of 4-6 isolates
Description: as §1

[18] = system: Staphylococcus aureus 489; test: MIC, standard broth micro-dilution assay, SA 489
Description: as §1

[19] = system: Escherichia coli EC14; test: MIC, standard broth micro-dilution assay, EC 14
Description: as §1

[20] = system: Staphylococcus aureus 446; test: MIC, standard broth micro-dilution assay, SA 446
Description: as §1

[21] = system: Resistant Enterococcus faecium and faecalis; test: MIC, standard broth micro-dilution assay, Resistant; conditions: geometric mean of 4-6 isolates
Description: as §1

Row | Compound | minimal inhibitory concentration (MIC), SA 1199 [1] | minimal inhibitory concentration (MIC), SH 105 [2] | minimal inhibitory concentration (MIC), EF 2041 [3] | minimal inhibitory concentration (MIC), SE 270 [4] | minimal inhibitory concentration (MIC), EF 180 [5] | minimal inhibitory concentration (MIC), EF 180-1 [6] | minimal inhibitory concentration (MIC), SA 1199A [7] | minimal inhibitory concentration (MIC), EF 276 [8] | minimal inhibitory concentration (MIC), EG 245 [9] | minimal inhibitory concentration (MIC), SA S13E [10] | minimal inhibitory concentration (MIC), SA 447 [11] | minimal inhibitory concentration (MIC), HFRD [12] | minimal inhibitory concentration (MIC), SA 491 [13] | minimal inhibitory concentration (MIC), SH 415 [14] | minimal inhibitory concentration (MIC), SA X778 [15] | minimal inhibitory concentration (MIC), SA X400 [16] | minimal inhibitory concentration (MIC), Sensitive [17] | minimal inhibitory concentration (MIC), SA 489 [18] | minimal inhibitory concentration (MIC), EC 14 [19] | minimal inhibitory concentration (MIC), SA 446 [20] | other results
1 | CC1OC(OC2C(Oc3c4cc5cc3Oc3ccc(cc3Cl)[C@@H](O)[C@@H](NC(=O)[C@H]3CCCN3C(=O)OC(C)(C)C)C(=O)N[C@@H](CC(N)=O)C(=O)N[C@H]5C(=O)N[C@H]3C(=O)NC(C(=O)N[C@H](C(=O)O)c5cc(O)cc(O)c5-c5cc3ccc5O)[C@H](OC3CC(C)(N)C(O)C(C)O3)c3ccc(c(Cl)c3)O4)OC(CO)C(O)C2O)CC(C)(N)C1O (stereo partly drawn) [Example 24, N^1-(N-BOC-D-proline) derivative of desleucylA82846B] | 2 | 16 | 1 | 2 | >64 | 1 | 1 | 1 | 8 | 2 | 4 | >64 | 1 | 32 | 1 | 2 | 4 | 2 | >64 | 4 | minimal inhibitory concentration (MIC), Resistant [21]: >128
2 | CC(C)CC(NC(=O)OC(C)(C)C)C(=O)NC1C(=O)NC(CC(N)=O)C(=O)NC2C(=O)NC3C(=O)NC(C(=O)NC(C(=O)O)c4cc(O)cc(O)c4-c4cc3ccc4O)C(OC3CC(C)(N)C(O)C(C)O3)c3ccc(c(Cl)c3)Oc3cc2cc(c3OC2OC(CO)C(O)C(O)C2O)Oc2ccc(cc2Cl)C1O [Example 36, N^1-(N-BOC-D-leucine) derivative of desepivancosaminyl desleucylA82846B] | 4 | 2 | 8 | 16 | >64 | 4 | 4 | 4 | 16 | 4 | 16 | >64 | 2 | >64 | 4 | 4 | 16 | 4 | >64 | 8 | minimal inhibitory concentration (MIC), Resistant [21]: >128
3 | CC(C)CCC(=O)NC1C(=O)NC(CC(N)=O)C(=O)NC2C(=O)NC3C(=O)NC(C(=O)NC(C(=O)O)c4cc(O)cc(O)c4-c4cc3ccc4O)C(OC3CC(C)(N)C(O)C(C)O3)c3ccc(c(Cl)c3)Oc3cc2cc(c3OC2OC(CO)C(O)C(O)C2OC2CC(C)(NCc3ccc(-c4ccc(Cl)cc4)cc3)C(O)C(C)O2)Oc2ccc(cc2Cl)C1O (stereo not drawn) [Example 7, N^1-(4-methyl-n-pentanoyl)-N^DISACC-[p-(p-chlorophenyl)benzyl]desleucylA82846B] | 1 | ≦.06 | ≦.06 | ≦.06 | 1 | ≦.06 | ≦.06 | ≦.06 | ≦.06 | 0.5 | 0.5 | 64 | 0.125 | 1 | 1 | 0.5 | 0.22 | 1 | >64 | 0.5 | minimal inhibitory concentration (MIC), Resistant [21]: 3.4
4 | CC(C)CC(NC(=O)OC(C)(C)C)C(=O)NC1C(=O)NC(CC(N)=O)C(=O)NC2C(=O)NC3C(=O)NC(C(=O)NC(C(=O)O)c4cc(O)cc(O)c4-c4cc3ccc4O)C(OC3CC(C)(N)C(O)C(C)O3)c3ccc(c(Cl)c3)Oc3cc2cc(c3OC2OC(CO)C(O)C(O)C2OC2CC(C)(NCc3ccc(-c4ccccc4)cc3)C(O)C(C)O2)Oc2ccc(cc2Cl)C1O [Example 11, N^1-(N-BOC-L-leucine) derivative of N^DISACC-(p-phenylbenzyl)desleucylA82846B] | 1 | 0.5 | 1 | 0.5 | 8 | 0.25 | 1 | 2 | 1 | 1 | 1 | >64 | 2 | 1 | 0.5 | 1 | 1.7 | 2 | >64 | 1 | minimal inhibitory concentration (MIC), Resistant [21]: 45
5 | CC1OC(OC2c3ccc(c(Cl)c3)Oc3cc4cc(c3OC3OC(CO)C(O)C(O)C3OC3CC(C)(NCc5ccc(-c6ccccc6)cc5)C(O)C(C)O3)Oc3ccc(cc3Cl)C(O)C(NC(=O)CCCCCCCc3ccccc3)C(=O)NC(CC(N)=O)C(=O)NC4C(=O)NC3C(=O)NC2C(=O)NC(C(=O)O)c2cc(O)cc(O)c2-c2cc3ccc2O)CC(C)(N)C1O (stereo not drawn) [Example 3, N^1-(8-phenyl-n-octanoyl)-N^DISACC-(p-phenylbenzyl)desleucylA82846B] | 1 | 1 | 0.5 | 1 | 1 | ≦.06 | 0.5 | 0.5 | 2 | 2 | 1 | >64 | 1 | 2 | 1 | 1 | 2.6 | 1 | >64 | 1 | minimal inhibitory concentration (MIC), Resistant [21]: 6.7
